Where a name gives a salt, the structure may show the parent alone.
Assay: in vitro dissolution test using a microcentrifuge method
Type: physicochemical
Set-up: AUC / AUC90: concentration or dose not given beside the values
Settings: for Ziprasidone Concentration: 50 mM MOPS buffer with 150 mM NaCl, pH 7.4, 37° C., supernatant after centrifugation
Description: The dissolution of ziprasidone from the complex mixed with various concentration-enhancing polymers was evaluated in an in vitro dissolution test using a microcentrifuge method. […] The polymer amounts are expressed as wt % based on the weight of the complex. […] Ltd., Tokyo, Japan). […] Tests were performed in duplicate. The tubes were placed in a 37° C. temperature-controlled chamber, and 1.8 mL of 50 mM 4-morpholinepropanesulfonic acid (MOPS) buffer with 150 mM NaCl (pH 7.4) was added. The samples were quickly mixed using a vortex mixer for about 60 seconds. […] The resulting supernatant solution was then sampled and diluted 1:4 (by volume) with methanol and then analyzed by high-performance liquid chromatography (HPLC). A Phenomenex Ultracarb 5 ODS HPLC column was used with a mobile phase of 60 vol. % of 0.02 M KH2PO4 (pH 3.0), and 40 vol. % acetonitrile. UV detection was measured at 254 nm. The contents of the tubes were mixed on the vortex mixer and allowed to stand undisturbed at 37° C. until the next sample was taken. […] The concentrations of drug obtained in these samples are shown below. The dissolution of ziprasidone from these complexes mixed with concentration-enhancing polymer was evaluated using the in vitro dissolution test described in the Examples above.

AUC90 (dissolution AUC 0-90 min, MOPS buffer pH 7.4, 37° C.): 100 µg·min/mL
AUC (dissolution AUC up to 0 min, MOPS buffer pH 7.4, 37° C.): 0 µg·min/mL
AUC (dissolution AUC up to 4 min, MOPS buffer pH 7.4, 37° C.): 0 µg·min/mL
AUC (dissolution AUC up to 10 min, MOPS buffer pH 7.4, 37° C.): 0 µg·min/mL
AUC (dissolution AUC up to 30 min, MOPS buffer pH 7.4, 37° C.): 0 µg·min/mL
AUC (dissolution AUC up to 60 min, MOPS buffer pH 7.4, 37° C.): 0 µg·min/mL
AUC (dissolution AUC up to 90 min, MOPS buffer pH 7.4, 37° C.): 100 µg·min/mL
Cmax,90 (maximum ziprasidone concentration within 90 min, MOPS buffer pH 7.4, 37° C.): 3000 ng/mL
Ziprasidone Concentration (time 0 min): 0 µg/mL
Ziprasidone Concentration (time 4 min): 3 µg/mL
Ziprasidone Concentration (time 10 min): 1 µg/mL
Ziprasidone Concentration (time 30 min): 1 µg/mL
Ziprasidone Concentration (time 60 min): 1 µg/mL
Ziprasidone Concentration (time 90 min): 1 µg/mL
Structure (SMILES): O=C1Cc2cc(CCN3CCN(c4nsc5ccccc45)CC3)c(Cl)cc2N1 [Example C2, ziprasidone mesylate]
